# Results from patent US12396995B2, “Substituted 4-aminoisoindoline-1,3-dione compounds and second active agents for combined use” (Celgene Corporation, priority 2019, dated 2025).
# How the values were obtained:
# [1] = tested on: DB DLBCL xenograft tumors; assay: DB (DLBCL) xenograft model, Compound 1 alone and with tazemetostat; format: in vivo, female SCID mice; conditions: for tumor volume reduction: 5 D on/2 D off
# Experimental: Anti-tumor activity of Compound 1 alone and in combination with tazemetostat was studied in DB (DLBCL) xenograft model. Compound 1 (3, 10 or 30 mg/kg) was administered once daily for 5 consecutive days followed by 2 days off (5 D on/2 D off) and tazemetostat (200 mg/kg) was administered twice daily (BID).
# Methods: Xenograft study was conducted with female SCID mice bearing DB DLBCL xenograft tumors. Female SCID mice were inoculated subcutaneously with DB cells in the flank region above the right hind leg. Following inoculation of animals, the tumors were allowed to grow to approximately 200 mm^3 prior to randomization. On day 33 following tumor cell inoculation, the mice bearing DB tumors ranging between 150 and 250 mm^3 were pooled together and randomized into various treatment groups. Compound 1 was formulated in 0.5% Methyl Cellulose, 0.25% Tween 80 and 50 mM Citrate pH 3 in water. Tazemetostat was formulated in CMC-Tween. Compound 1 (3, 10 or 30 mg/kg) was orally administered with three cycles of once daily for 5 consecutive days followed by 2 days off starting from day 33 after tumor cell inoculation. Tazemetostat (200 mg/kg) was orally administered twice day (BID) for three weeks. In combination group the animals received Compound 1 (3, 10 or 30 mg/kg, 5 D on/2 D off) and tazemetostat (200 mg/kg, BID) simultaneously for three weeks starting from day 33 after tumor cell inoculation. Tumors were measured twice a week using calipers and tumor volumes were calculated using the formula of W^2×L/2. Statistical analysis was performed using a one-way or 2-way analysis of variance (ANOVA). Synergy calculations were performed using fractional product method.
# [2] = tested on: primary CLL cells (CD5+CD19+ tumor cells); assay: Ex vivo apoptosis of B-cell CLL patient cells, Compound 1 with venetoclax (flow cytometry, Caspase 3); format: cell-based, human; conditions: 144 hrs
# Experimental: CLL is characterized by accumulation of clonal CD5^+CD19^+ lymphocytes resistant to apoptosis. Venetoclax blocks the anti-apoptotic B-cell lymphoma-2 (Bcl-2) protein, leading to programmed cell death of CLL cells and is currently being tested in the clinic with different combinations for relapsed refractory patients. The effect of Compound 1 in combination with venetoclax on the proliferation and survival of CLL B cells was assessed utilizing an ex vivo model where primary CLL cells from patient-derived blood were stimulated to proliferate with 10% fetal bovine serum (FBS), 5 ng/mL recombinant human interleukine-4 (rh IL-4), 10 ng/mL recombinant human interleukine-10 (rh IL-10) and co-cultured with fibroblast expressing surface CD154 (CD40L) in a 96 well plate format.
# Peripheral blood mononuclear cells (PBMCs) from CLL patients (Table 6) containing 52%-86% of CD5^+CD19^+ tumor cells were cultured at a density of 0.06-0.1×10^6 cells/well on a monolayer of CD154-expressing fibroblasts at a density of 0.09×10^6 cells/well in 96-well plates in RPMI 1640 medium supplemented with 10% FBS, 5 ng/mL rh IL-4 and 10 ng/mL rh IL-10 and were simultaneously treated with vehicle control (0.1% DMSO) or increasing concentrations of Compound 1 ranging from 0.0001 to 1 μM and venetoclax at concentrations ranging from 0.001 to 10 μM across all the different concentrations of Compound 1. After 144 hrs of treatment with both the agents, flow cytometric analysis was used to determine the number of tumor cells that were viable or apoptotic.
# After 6 days of treatment, the tumor cell count was assessed by staining the patient PBMCs in each condition with tumor cell surface markers CD5 & CD19 along with Live/Dead fixable dye to exclude the dead cells and followed by intracellular staining for Caspase 3 antibody to identify the apoptotic cells and was measured by flow cytometry (Attune NxT, Thermo Fisher). The live tumor cell count for each condition was calculated by normalizing to the precision count beads added to each sample.
# For apoptosis analysis, the percentage of apoptosis combining both “early” (Caspase 3 positive and Live-Dead fixable dye negative) and “late” apoptosis (Caspase 3 and Live-Dead fixable dye positive) cell gates subtracting the baseline DMSO value was graphed using GraphPad Prism 8.0.0.0. The Ymax (maximal percentage of apoptosis achieved) values from apoptosis curves were calculated by performing a nonlinear regression curve fitting using log(agonist) vs. normalized response—Variable slope analysis and identifying the maximum value on GraphPad Prism 8.0.0 (Table 7).
# [3] = DMSO + Cpd1 DRC (no venetoclax)
compound,measurement,setting,value
"O=C1CC[C@H](N2C(=O)c3cccc(NCc4ccc(CN5CC(N6CCOCC6)C5)cc4F)c3C2=O)C(=O)N1 [Compound 1, (S)-2-(2,6-dioxopiperidin-3-yl)-4-((2-fluoro-4-((3-morpholinoazetidin-1-yl)methyl)benzyl)amino)isoindoline-1,3-dione]",tumor volume reduction compared with vehicle control,[1]; Compound 1 3 mg/kg in combination with tazemetostat 200 mg/kg,99.1%
same,tumor volume reduction compared with vehicle control,[1]; Compound 1 10 mg/kg in combination with tazemetostat 200 mg/kg,100%
same,tumor volume reduction compared with vehicle control,[1]; Compound 1 30 mg/kg in combination with tazemetostat 200 mg/kg,100%
same,combination antitumor activity (fractional product method),"[1]; Compound 1 at 3, 10 or 30 mg/kg and tazemetostat at 200 mg/kg",synergistic
same,tumor volume reduction,[1]; single agent Compound 1 3 mg/kg oral,16.9%
same,tumor volume reduction,[1]; single agent Compound 1 10 mg/kg oral,41.11%
same,tumor volume reduction,[1]; single agent Compound 1 30 mg/kg oral,48.9%
same,animals tumor free,[1]; tazemetostat in combination with 3 mg/kg Compound 1,90%
same,animals tumor free,[1]; tazemetostat in combination with 10 mg/kg Compound 1,100%
same,animals tumor free,[1]; tazemetostat in combination with 30 mg/kg Compound 1,100%
same,"Ymax of Pt 11 (%), maximal apoptosis",[2]; [3],12.42%
same,"Ymax of Pt 12 (%), maximal apoptosis",[2]; [3],14.64%
same,"Ymax of Pt 13 (%), maximal apoptosis",[2]; [3],27.00%
same,"Ymax of Pt 14 (%), maximal apoptosis",[2]; [3],13.32%
same,"Ymax of Pt 11 (%), maximal apoptosis",[2]; venetoclax 0.001 uM + Cpd1 DRC,17.79%
same,"Ymax of Pt 12 (%), maximal apoptosis",[2]; venetoclax 0.001 uM + Cpd1 DRC,24.85%
same,"Ymax of Pt 13 (%), maximal apoptosis",[2]; venetoclax 0.001 uM + Cpd1 DRC,33.09%
same,"Ymax of Pt 14 (%), maximal apoptosis",[2]; venetoclax 0.001 uM + Cpd1 DRC,17.39%
same,"Ymax of Pt 11 (%), maximal apoptosis",[2]; venetoclax 0.01 uM + Cpd1 DRC,38.49%
same,"Ymax of Pt 12 (%), maximal apoptosis",[2]; venetoclax 0.01 uM + Cpd1 DRC,34.24%
same,"Ymax of Pt 13 (%), maximal apoptosis",[2]; venetoclax 0.01 uM + Cpd1 DRC,49.03%
same,"Ymax of Pt 14 (%), maximal apoptosis",[2]; venetoclax 0.01 uM + Cpd1 DRC,27.33%
same,"Ymax of Pt 11 (%), maximal apoptosis",[2]; venetoclax 0.1 uM + Cpd1 DRC,58.37%
same,"Ymax of Pt 12 (%), maximal apoptosis",[2]; venetoclax 0.1 uM + Cpd1 DRC,45.34%
same,"Ymax of Pt 13 (%), maximal apoptosis",[2]; venetoclax 0.1 uM + Cpd1 DRC,52.16%
same,"Ymax of Pt 14 (%), maximal apoptosis",[2]; venetoclax 0.1 uM + Cpd1 DRC,31.44%
same,"Ymax of Pt 11 (%), maximal apoptosis",[2]; venetoclax 1 uM + Cpd1 DRC,66.55%
same,"Ymax of Pt 12 (%), maximal apoptosis",[2]; venetoclax 1 uM + Cpd1 DRC,48.71%
same,"Ymax of Pt 13 (%), maximal apoptosis",[2]; venetoclax 1 uM + Cpd1 DRC,55.23%
same,"Ymax of Pt 14 (%), maximal apoptosis",[2]; venetoclax 1 uM + Cpd1 DRC,40.57%
same,"Ymax of Pt 11 (%), maximal apoptosis",[2]; venetoclax 10 uM + Cpd1 DRC,72.34%
same,"Ymax of Pt 12 (%), maximal apoptosis",[2]; venetoclax 10 uM + Cpd1 DRC,54.25%
same,"Ymax of Pt 13 (%), maximal apoptosis",[2]; venetoclax 10 uM + Cpd1 DRC,60.52%
same,"Ymax of Pt 14 (%), maximal apoptosis",[2]; venetoclax 10 uM + Cpd1 DRC,45.98%
